Measurements published in patent US6548517B2, “Oxindole inhibitors of factor Xa” (Millennium Pharmaceuticals, Inc., priority 2000, dated 2003).

Key:
Format in all cases: biochemical
prothrombinase complex = prothrombinase complex (Homo sapiens, UniProt P00742); experiment: prothrombinase inhibition assay, plasma free system; settings: read-out: IIASE IC50
Method: (§1) The compounds of the present invention are dissolved in buffer to give solutions containing concentrations such that assay concentrations range from 0 to 100 μM. In the assays for thrombin, prothrombinase and factor Xa, a synthetic chromogenic substrate is added to a solution containing test compound and the enzyme of interest and the residual catalytic activity of that enzyme is determined spectrophotometrically. The IC50 of a compound is determined from the substrate turnover. The IC50 is the concentration of test compound giving 50% inhibition of: the substrate turnover.
The prothrombinase inhibition assay was performed in a plasma free system with modifications to the method described by Sinha, U. et al., Thromb. Res., 75, 427-436 (1994). Specifically, the activity of the prothrombinase complex was determined by measuring the time course of thrombin generation using the p-nitroanilide substrate Chromozym TH. The assay consists of preincubation (5 minutes) of selected compounds to be tested as inhibitors with the complex formed from factor Xa (0.5 nM), factor Va (2 nM), phosphatidyl serine:phosphatidyl choline (25:75, 20 μM) in 20 mM TrisHCI buffer, pH 7.5, containing 0.15 M NaCl, 5 mM CaCl2 and 0.1% bovine serum albumin. Aliquots from the complex-inhibitor mixture were added to prothrombin (1 nM) and Chromozym TH (0.1 mM). The rate of substrate cleavage was monitored at 405 nm for two minutes. Eight different concentrations of inhibitor were assayed in duplicate. A standard curve of thrombin generation by an equivalent amount of untreated complex was used for determination of percent inhibition.

KALLIKREIN = experiment: kallikrein protease inhibition assay
TRYPSIN = target: T1, TRYPSIN (Bos taurus, UniProt P00760); experiment: trypsin protease inhibition assay
T1 construct: gene PRSS1
T1 sequence (P00760 24-246): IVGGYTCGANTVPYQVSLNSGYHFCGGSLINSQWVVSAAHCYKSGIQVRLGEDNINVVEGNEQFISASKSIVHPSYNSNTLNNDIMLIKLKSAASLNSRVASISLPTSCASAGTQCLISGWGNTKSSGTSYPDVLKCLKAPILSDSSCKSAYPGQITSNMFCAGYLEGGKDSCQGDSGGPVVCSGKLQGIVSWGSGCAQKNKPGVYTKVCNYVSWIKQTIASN

APC = APC (Homo sapiens, UniProt P04070); experiment: APC protease inhibition assay
APC, sequence (P04070 212-461 limits assumed): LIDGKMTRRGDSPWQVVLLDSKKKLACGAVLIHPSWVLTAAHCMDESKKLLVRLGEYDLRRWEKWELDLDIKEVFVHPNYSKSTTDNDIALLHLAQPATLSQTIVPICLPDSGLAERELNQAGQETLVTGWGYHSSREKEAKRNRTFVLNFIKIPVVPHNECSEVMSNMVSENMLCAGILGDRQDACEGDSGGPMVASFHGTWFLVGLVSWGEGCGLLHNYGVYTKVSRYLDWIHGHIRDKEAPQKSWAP
APC, sequence (P04070 43-197 limits assumed): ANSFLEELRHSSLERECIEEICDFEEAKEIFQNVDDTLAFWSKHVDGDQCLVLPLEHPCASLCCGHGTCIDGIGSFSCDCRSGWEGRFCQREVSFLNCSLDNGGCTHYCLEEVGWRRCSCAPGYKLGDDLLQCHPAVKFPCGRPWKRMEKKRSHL

thrombin = target: T2, thrombin (Homo sapiens, UniProt P00734); experiment: thrombin amidolytic assay (Chromozym TH); settings: read-out: IIA IC50
T2 construct: proteolytic cleavage of its precursor prothrombin at the Arg-Thr linkage at positions 271-272 and the Arg-Ile linkage at positions 320-321
Method: as §1
(§2) The factor Xa and thrombin assays were performed at room temperature, in 0.02 M TrisHCl buffer, pH 7.5, containing 0.15 M NaCl. The rates of hydrolysis of the para-nitroanilide substrate S-2765 (Chromogenix) for factor Xa, and the substrate Chromozym TH (Boehringer Mannheim) for thrombin following preincubation of the enzyme with inhibitor for 5 minutes at room temperature, and were determined using the Softmax 96-well plate reader (Molecular Devices), monitored at 405 nm to measure the time dependent appearance of p-nitroaniline.

TPA = TPA (Homo sapiens, UniProt P00750); experiment: TPA protease inhibition assay
TPA, sequence (P00750 36-562, species assumed): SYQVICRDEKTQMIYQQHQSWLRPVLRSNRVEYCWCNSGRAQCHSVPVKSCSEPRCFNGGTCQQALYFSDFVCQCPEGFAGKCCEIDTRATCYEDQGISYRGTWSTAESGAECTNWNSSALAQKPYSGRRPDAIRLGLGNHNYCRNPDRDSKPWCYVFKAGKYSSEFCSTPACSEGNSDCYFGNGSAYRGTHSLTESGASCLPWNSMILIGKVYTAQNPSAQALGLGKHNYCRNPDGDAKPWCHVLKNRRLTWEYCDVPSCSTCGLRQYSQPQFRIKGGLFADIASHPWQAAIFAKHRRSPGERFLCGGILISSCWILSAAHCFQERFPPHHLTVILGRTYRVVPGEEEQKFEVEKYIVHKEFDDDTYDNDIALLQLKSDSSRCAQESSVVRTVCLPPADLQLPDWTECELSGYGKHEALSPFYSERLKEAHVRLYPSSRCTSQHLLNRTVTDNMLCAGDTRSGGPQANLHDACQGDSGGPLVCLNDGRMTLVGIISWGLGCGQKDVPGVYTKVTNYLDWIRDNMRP

PLASMIN = PLASMIN (Homo sapiens, UniProt P00747); experiment: plasmin protease inhibition assay
PLASMIN, sequence (P00747 581-810 limits assumed, species assumed): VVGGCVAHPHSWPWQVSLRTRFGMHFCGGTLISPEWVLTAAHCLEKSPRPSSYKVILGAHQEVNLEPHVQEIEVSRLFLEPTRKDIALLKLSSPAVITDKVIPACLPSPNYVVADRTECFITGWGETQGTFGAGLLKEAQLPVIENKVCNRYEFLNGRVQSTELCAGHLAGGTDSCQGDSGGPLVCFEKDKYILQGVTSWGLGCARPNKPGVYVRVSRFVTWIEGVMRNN
PLASMIN, sequence (P00747 97-580 limits assumed, species assumed): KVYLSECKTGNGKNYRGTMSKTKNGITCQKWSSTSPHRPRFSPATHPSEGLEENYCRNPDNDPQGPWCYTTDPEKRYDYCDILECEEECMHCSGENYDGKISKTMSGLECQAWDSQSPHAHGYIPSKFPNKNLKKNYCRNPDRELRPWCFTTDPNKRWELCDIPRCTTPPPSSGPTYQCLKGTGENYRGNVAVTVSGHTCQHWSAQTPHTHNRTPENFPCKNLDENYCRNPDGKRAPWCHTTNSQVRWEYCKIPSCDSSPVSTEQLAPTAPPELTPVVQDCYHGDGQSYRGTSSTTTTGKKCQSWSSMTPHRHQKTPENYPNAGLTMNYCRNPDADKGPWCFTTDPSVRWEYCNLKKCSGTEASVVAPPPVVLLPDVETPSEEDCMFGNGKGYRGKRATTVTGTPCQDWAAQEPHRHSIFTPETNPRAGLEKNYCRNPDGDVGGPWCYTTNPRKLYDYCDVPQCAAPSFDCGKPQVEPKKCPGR

factor Xa = factor Xa (Homo sapiens, UniProt P00742); experiment: factor Xa amidolytic assay (chromogenic substrate S-2765)
factor Xa, sequence (P00742 235-488 limits assumed): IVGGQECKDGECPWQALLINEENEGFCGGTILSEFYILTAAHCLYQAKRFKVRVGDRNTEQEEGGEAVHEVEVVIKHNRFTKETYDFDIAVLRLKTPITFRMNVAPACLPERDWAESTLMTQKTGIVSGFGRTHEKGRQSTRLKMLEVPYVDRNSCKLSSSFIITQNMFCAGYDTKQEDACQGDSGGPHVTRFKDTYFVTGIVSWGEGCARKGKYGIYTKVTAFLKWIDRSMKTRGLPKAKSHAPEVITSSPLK
factor Xa, sequence (P00742 41-179 limits assumed): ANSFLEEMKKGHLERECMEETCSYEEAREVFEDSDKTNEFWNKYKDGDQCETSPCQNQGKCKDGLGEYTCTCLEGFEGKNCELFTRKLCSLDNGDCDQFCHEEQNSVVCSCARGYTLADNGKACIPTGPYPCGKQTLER
Method: as §1, §2

prothrombinase complex, sequence (P00742 235-488 limits assumed): as the sequence (P00742 235-488 limits assumed) above
prothrombinase complex, sequence (P00742 41-179 limits assumed): as the sequence (P00742 41-179 limits assumed) above
prothrombinase complex, sequence (P12259 29-737 partner limits assumed): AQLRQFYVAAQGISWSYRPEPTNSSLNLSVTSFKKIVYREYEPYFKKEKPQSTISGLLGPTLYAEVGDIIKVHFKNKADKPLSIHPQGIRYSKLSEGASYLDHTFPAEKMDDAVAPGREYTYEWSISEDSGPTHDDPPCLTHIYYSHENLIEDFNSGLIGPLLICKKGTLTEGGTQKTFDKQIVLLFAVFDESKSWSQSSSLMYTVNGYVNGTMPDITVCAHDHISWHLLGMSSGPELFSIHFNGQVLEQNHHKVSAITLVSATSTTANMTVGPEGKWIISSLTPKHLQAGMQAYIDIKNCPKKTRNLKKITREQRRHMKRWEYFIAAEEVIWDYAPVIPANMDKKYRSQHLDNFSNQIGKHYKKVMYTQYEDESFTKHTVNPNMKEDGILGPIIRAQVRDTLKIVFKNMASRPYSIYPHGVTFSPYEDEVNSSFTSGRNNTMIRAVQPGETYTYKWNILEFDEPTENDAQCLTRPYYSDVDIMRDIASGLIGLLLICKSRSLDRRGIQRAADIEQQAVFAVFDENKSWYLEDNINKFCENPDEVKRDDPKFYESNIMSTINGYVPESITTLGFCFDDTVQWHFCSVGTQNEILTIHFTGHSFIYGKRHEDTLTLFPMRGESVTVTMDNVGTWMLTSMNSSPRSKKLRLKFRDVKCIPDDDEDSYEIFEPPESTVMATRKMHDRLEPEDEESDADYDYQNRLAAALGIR
prothrombinase complex, sequence (P12259 1574-2224 partner limits assumed): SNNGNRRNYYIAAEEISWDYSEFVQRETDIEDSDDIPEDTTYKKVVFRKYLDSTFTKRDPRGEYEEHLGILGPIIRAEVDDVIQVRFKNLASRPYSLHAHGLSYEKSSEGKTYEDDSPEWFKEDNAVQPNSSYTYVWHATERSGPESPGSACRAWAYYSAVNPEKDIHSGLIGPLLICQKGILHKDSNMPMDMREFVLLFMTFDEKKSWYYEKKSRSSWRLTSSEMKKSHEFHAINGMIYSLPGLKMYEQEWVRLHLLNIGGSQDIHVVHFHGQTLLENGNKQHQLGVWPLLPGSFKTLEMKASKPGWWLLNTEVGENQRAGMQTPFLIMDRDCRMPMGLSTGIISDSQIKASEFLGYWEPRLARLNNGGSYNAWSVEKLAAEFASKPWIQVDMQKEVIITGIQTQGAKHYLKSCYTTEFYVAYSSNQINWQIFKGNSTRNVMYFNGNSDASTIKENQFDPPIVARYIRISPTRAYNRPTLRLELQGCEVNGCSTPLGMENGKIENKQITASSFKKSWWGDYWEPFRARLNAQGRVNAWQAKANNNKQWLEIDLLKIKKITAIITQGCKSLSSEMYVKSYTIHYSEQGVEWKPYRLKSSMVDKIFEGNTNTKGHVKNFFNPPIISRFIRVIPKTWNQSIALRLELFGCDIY

| Structure (SMILES) | IC50 (prothrombinase complex) [nM] | IC50 (KALLIKREIN) [nM] | IC50 (TRYPSIN) [nM] | IC50 (APC) [nM] | IC50 (thrombin) [µM] | IC50 (TPA) [µM] | IC50 (PLASMIN) [nM] | IC50 (factor Xa) [nM] |
| --- | --- | --- | --- | --- | --- | --- | --- | --- |
| CC1(C)C(=O)N(Cc2ccc3ccc(C(=N)N)cc3c2)c2ccc(OC3CCN(C(=N)N)CC3)cc21 [Example 5] | 264 | 535 | 6.39 | 683 | 4.53 | 19.5 | 1410 | 72.5 |
| CC(=N)N1CCC(Oc2ccc3c(c2)CC(=O)N3Cc2ccc3ccc(C(=N)N)cc3c2)CC1 [Example 1] | 504 | 307 | 62.1 | 5180 | 72.5 | 18.3 | 2460 | 13 |
| CC(=N)N1CCC(Oc2ccc3c(c2)/C(=C/C(=O)O)C(=O)N3Cc2ccc3ccc(C(=N)N)cc3c2)CC1 [Example 12] | 117 | 2420 | 28.6 | 6660 | 240 | 62.1 | 1250 | 17.4 |
| CC(C)=C1C(=O)N(Cc2ccc3ccc(C(=N)N)cc3c2)c2ccc(OC3CCN(C(=N)N)CC3)cc21 [Example 6] | 19.8 | 304 | 17.6 | 3060 | 19.5 | 28.5 | 880 | 15.1 |
| CC(=N)N1CCC(Oc2ccc3c(c2)C(C)(C)C(=O)N3Cc2ccc3ccc(C(=N)N)cc3c2)CC1 [Example 4] | 163 | 606 | 13.5 | 848 | 6.97 | 17.9 | 2210 | 40.2 |
| CC(=N)N1CCC(Oc2ccc3c(c2)/C(=C/c2ccccc2)C(=O)N3Cc2ccc3ccc(C(=N)N)cc3c2)CC1 [Example 9] | 8.4 | 128 | 8.1 | 954 | 28 | 26.6 | 319 | 2.82 |
| CC(=N)N1CCC(Oc2ccc3c(c2)/C(=C/c2ccc(F)cc2)C(=O)N3Cc2ccc3ccc(C(=N)N)cc3c2)CC1 [Example 10] | 19.3 | 201 | 10.4 | 1550 | 20 | 38.5 | 407 | 5.92 |
| CC(C)C1C(=O)N(Cc2ccc3ccc(C(=N)N)cc3c2)c2ccc(OC3CCN(C(=N)N)CC3)cc21 (stereo not shown) [Example 7] | 116 | 440 | 3.47 | 549 | 4.26 | 27.9 | 734 | 28.4 |
| CC(=N)N1CCC(Oc2ccc3c(c2)/C(=C/c2ccc(Cl)cc2)C(=O)N3Cc2ccc3ccc(C(=N)N)cc3c2)CC1 [Example 11] | 17.4 | 259 | 30.3 | 1480 | 16.1 | 28.7 | 309 | 5.76 |
| CC(=N)N1CCC(Oc2ccc3c(c2)C(CC(=O)O)C(=O)N3Cc2ccc3ccc(C(=N)N)cc3c2)CC1 (stereo not shown) [Example 13] | 90.4 | 1590 | 140 | 9940 | 500 | 37 | 2130 | 53.6 |
| CC(=N)N1CCC(Oc2ccc3c(c2)C(C(C)C)C(=O)N3Cc2ccc3ccc(C(=N)N)cc3c2)CC1 (stereo not shown) [Example 8] | 36.3 | 334 | 4.92 | 389 | 4.71 | 18.1 | 628 | 18.7 |
